Test results taken from patent US20240261297A1, “ANTI-CDK INHIBITORS FOR CANCER TREATMENT” (St. John's Cancer Institute, priority 2021, published 2024).

What was measured:
[1] = tested on: caspase 3/7 in PLC/PRF/5 cells; assay: Caspase Glo 3/7 activity assay in PLC/PRF/5 cells; format: cell-based
[2] = tested on: pCDK2 and phospho-RB in MDA-MB-468 cells; assay: Western blot of pCDK2 and phospho-Rb in MDA-MB-468 cells; format: cell-based; conditions: increasing amounts
Experimental: FIGS. 3A-3B show target protein inhibition in Basal like TNBC cells. FIG. 3A is a Western blot showing pCDK2 levels in MDA-MB-468 cells with increasing dose of I-3 (CD11). FIG. 3B is a Western blot showing Phospho-Rb levels in MDA-MB-468 cells with increasing dose of I-3 (CD11).
Compound 1-3 efficacy was assessed in several in vitro assays. A nanoBrET assay was used to measure intracellular kinase activity of I-3 with CDK2, CDK1, CDK7 and CDK9. Briefly, HEK293 cells were transfected with CDK2, CDK1, CDK7 and CDK9. The transfected cells were treated in duplicate with test compound I-3 (starting at 10 μM, 10-dose with 3-fold dilution) and target engagement was measured by NanoBRET assay (FIG. 2A and Table 4). Cellular thermal shift assay (CETSA) was also performed to evaluate drug target interaction in the cells. The CETSA method is built upon two concepts: cellular thermal shift and isothermal dose-response. The cellular thermal shift assay is based on the established fact that proteins that are complexed to a ligand become more resistant to heat induced unfolding. Isothermal dose response is used to determine a compound's potency in binding the target by measuring the thermal stability of the target treated with various concentrations of compound at a fixed temperature. […]

For `Nc1nccc(-c2c[nH]c3nccc(Oc4cccc(F)c4)c23)n1` [I-3, 4-(4-(3-fluorophenoxy)-1H-pyrrolo[2,3-b]pyridin-3-yl)pyrimidin-2-amine], the “Caspase 3/7 activation (comparison)” value [1] was “greater activation of caspase 3/7 by 1-3 than by PF-06873600”, the IC50 ([1]; Homo sapiens) was 2450 nM and the pCDK2 levels [2] was “reduced”. For the same molecule, the phosphor-RB levels [2] was “reduced”.
